According to a melting point compilation (Tetko et al.; mined from patent text by program, amines drawn as free bases though some values may be those of a salt):

| Compound | melting point |
| --- | --- |
| CC(C)(C)c1cc(C(=O)c2ncco2)cc(C(C)(C)C)c1O | 127 to 130 °C |
| CC1(C)Cc2cccc(Cl)c2C=[N+]1[O-] | 110 to 111 °C |
| COC(=O)c1cccc([N+](=O)[O-])c1C | 64.2 to 65.5 °C |
| CC(C)(C)c1cc(SC(Sc2cc(C(C)(C)C)c(O)c(C(C)(C)C)c2)c2ccccc2)cc(C(C)(C)C)c1O | 122 to 124 °C |
| N#CCCCCCC#Cc1nc(N)c2ncn(C3OC(CO)C(O)C3O)c2n1 (stereo unspecified) | 99 to 101 °C |
| O=C(CC1(c2ccccc2)CCCCC1)C(=O)Nc1ccc2c(c1)COC2=O | 120 to 123 °C |
| CS(=O)(=O)c1ccc(-n2nc(C(F)(F)F)cc2-c2nc3cc(F)ccc3s2)cc1 | 204 to 205 °C |
| Cc1cc(SC(C)C)c(NC(=O)CCCCSc2nc3cccc(C(F)(F)F)c3o2)c(SC(C)C)n1 | 118 to 120 °C |
| CCCCOCCCNc1ccc(-n2cc(C(F)(F)F)ccc2=O)c(Cl)c1 | 83 to 85 °C |
| CC(C)(C)C(=O)Nc1onc2c1CCC2 | 113 °C |
| O=C1N=c2ccccc2=C1C1CCNCC1 | 156 °C |
| COc1ccc(C2(C#N)CCC(=O)CC2)c2c1OC(C)(C)O2 | 153 to 154 °C |
| COc1c(Br)cc(Br)cc1C1(C#N)CCCCC1 | 100 to 102 °C |
| C=C(c1ccc(N(CC)CC)cc1)c1ccc(N(CC)CC)cc1 | 100 to 102 °C |
| Cn1ccc2c(c(=NO)c1=O)C=CCC2 | 225 to 226 °C |
| CNC(=C[N+](=O)[O-])NCCCOc1cccc(CCN(C)C)c1 | 93 to 94 °C |
| C#CCn1c(=O)sc2cc(F)c(-n3c(=O)cc(C(F)(F)F)[nH]c3=O)cc21 | 224 to 227 °C |
| Nc1ncc(-c2ccccc2-c2ncccn2)c(N)n1 | 95.1 °C |
| OC(CNCCNc1ncnc2[nH]ncc12)COc1ccccc1 (stereo unspecified) | 142 to 144 °C |
| ClC(c1ccccc1)c1ccc(C2CCCCC2)cc1 (stereo unspecified) | 75 °C |
| O=[N+]([O-])c1ccc(-n2cccn2)cc1 | 210 °C |
| Cn1nc(N)nc1NCCCOc1cccc(CN2CCCCC2)c1 | 94 to 95 °C |
| Cc1ccc(S(=O)(=O)NC(C)(C)C(C)C)cc1 | 80 to 89 °C |
| COc1cccc2c1OC(CO)CN2 (stereo unspecified) | 108 to 110 °C |
| O=C1NC(=O)C(c2ccc3cc(-c4ccc(O)c(C56CC7CC(CC(C7)C5)C6)c4)ccc3c2)S1 (stereo unspecified) | 312 to 314 °C |

| Compound | melting point |
| --- | --- |
| CS(=O)(=O)N(N(CCCl)S(=O)(=O)c1ccccc1)S(C)(=O)=O | 114 to 115 °C |
| Cc1cc(C)c(CNc2c(C)nn(C)c2NCC(C)(C)C)c(C)c1 | 114 to 120 °C |
| O=C(C1=C(O)C(=O)N(C2CC2)C1)c1ccc(Cc2ccc(F)cc2)o1 | 158 to 159 °C |
| O=C(c1ccc(Cl)c(Cl)c1)c1ccc(O)c(Cl)c1Cl | 179 to 180 °C |
| CC(C)(C)CC(C)(C)c1cc(-n2nc3ccc(Cl)cc3n2)c(O)c(C(C)(C)c2ccccc2)c1 | 104 to 105 °C |
| CC(O)C1CCCCCCCCCCC1 (stereo unspecified) | 35 °C |
| CS(=O)(=O)Nc1ccc(Nc2nc(NC3CCCC3)c3nc[nH]c3n2)cc1 | 261 to 265 °C |
| Cc1cc(Br)cnc1CCCCNC1=NS(=O)N=C1N (stereo unspecified) | 188 to 190 °C |
| COC(=O)NNC(=S)Cc1ccc(C(C)(C)C)cc1 | 93.5 to 94 °C |
| CCC1(CCCBr)C(=O)NC(=O)NC1=O | 138 to 140 °C |
| CN1CCN(CCc2[nH]c(=O)[nH]c2-c2ccc(F)cc2)CC1 | 237 to 239 °C |
| CC(=O)Cc1nc2ccccc2s1 | 118 to 119 °C |
| CCc1nc2c(N)nc3cc(CCCNC(=O)NC(C)C)ccc3c2n1CC1CCOCC1 | 213 to 216 °C |
| CC(C)(C)c1cc(Nc2ccc(C=CC(=O)O)cc2)cc(C(C)(C)C)c1O | 199 to 200 °C |
| Cc1cc(=O)n(-c2ccc(Cl)cc2F)c(=O)n1C | 145 °C |
| Nc1ccc(Nc2cccc3c2C(=O)c2ccccc2C3=O)cc1 | 175 to 182 °C |
| N#Cc1[nH]c([N+](=O)[O-])c(Br)c1Br | 181 to 186 °C |
| CCOC(=O)N1CCN(c2ccc(C(=O)CCc3ccc(NC4=NCCN4)cc3)cc2)CC1 | 150 to 151 °C |
| Nc1nc(Cl)cc(OCC(O)CO)n1 (stereo unspecified) | 175 to 177 °C |
| CCCCCCCCCCCCCCCCC(=O)Nc1ccn(C2OC(CO)C(O)C2O)c(=O)n1 (stereo unspecified) | 144 to 147 °C |
| COc1cc(Nc2c(C#N)cnc3sccc23)c(Cl)cc1Cl | 197 to 199 °C |
| NC(=O)c1nnc2n1-c1ccc(Cl)cc1C(c1ccccc1Cl)=NC2 | 226 to 228 °C |
| CCC(=O)Nc1cccc(-c2ccnc3c(C(=O)c4ccco4)cnn23)c1 | 185 to 186 °C |
| Fc1ccc(CC(=S)N2CCCCC2)cc1 | 65.5 to 67.5 °C |

Further lines, results first:

| melting point | Compound |
| --- | --- |
| 185 to 189 °C | Fc1cc(CC2(Cc3ccnc(F)c3)c3ccccc3Oc3ncccc32)ccn1 |
| 193 to 194 °C | Cc1nc(Cc2ccccc2)c2c(c1O)COC(C(C)C)OC2 (stereo unspecified) |
| 98 °C | CCN(CC)C(=O)Oc1nc(-c2ccc(C)cc2)cc2ccccc12 |
| 132 °C | CCOC(=O)Nc1ccc(C(c2ccccc2)n2ccnc2)cc1COC1CCCCO1 (stereo unspecified) |
| 213 to 214 °C | Cc1oc(C=Cc2cccc(Cl)c2)nc1C(=O)O |
| > 300 °C | CC(=O)Nc1cccc(Nc2ncnc3[nH]cc(C(=O)c4cccc(F)c4)c23)c1 |
| 114 to 116 °C | CCN(CC)C(=O)Sc1cc(OC)c(OC)cc1C(=O)c1ccccc1 |
| 328 to 329 °C | O=C1C(O)=C(c2ccc3ccccc3c2)C(=O)C(O)=C1c1ccc2ccccc2c1 |
| 210 °C | Cc1cccc(-c2sc(N)nc2-c2ccnc(-c3ccc(CN(C)C)cc3)c2)n1 |
| 210 to 211 °C | CC(CN(C)C)Oc1ccc(-c2nn(CC(=O)O)c3ncccc23)cc1 (stereo unspecified) |
| 169 to 170 °C | COc1cc(COc2nn(C)cc2C(=O)O)ccc1OCc1nc(-c2ccccc2)oc1C |
| 220 to 224 °C | O=C(O)C(Cc1ccccc1)Oc1ccc2cc(-c3csc(-c4ccccc4)n3)ccc2c1Br (stereo unspecified) |
| 236 °C | COc1cc(OC)c(C(=O)CBr)cc1C(=O)O |
| 162 to 163 °C | COCc1ccc(N2CCN(Cc3c[nH]c4ncccc34)CC2)cc1 |
| 105 to 107 °C | COc1cccc(CCCC(=O)O)c1C |
| 152 to 154 °C | COC(=O)c1cccc([N+](=O)[O-])c1Nc1cccc2[nH]ncc12 |
| 96 °C | Cc1c(-c2ccccc2)nn(N)c1OCCN1CCOCC1 |
| 207 to 209 °C | C=CCOC(=O)C(CCn1c(=O)c2c(ncn2C)n(C)c1=O)N(C)S(=O)(=O)c1ccc(Oc2ccccc2)cc1 (stereo unspecified) |
| 80 °C | CC(Br)C(=O)c1ccc(OCc2ccccc2)c(CO)c1 (stereo unspecified) |
| 114 °C | COc1ccc(Cl)cc1C(=O)NCCc1ccc(-c2ccc(S(C)(=O)=O)cc2)c(S(N)(=O)=O)c1 |
| 131 to 133 °C | CCC1(CCCCN2CCN(c3ccccn3)CC2)C(=O)Nc2ccccc21 (stereo unspecified) |
| 100 °C | Brc1ccc(/C=N/c2ccccc2)c(OCc2ccccc2)c1 |
| 82 to 84 °C | CN(C)CC1CN(Cc2ccccc2)c2ccccc2N1C=O (stereo unspecified) |
| 226 to 227 °C | O=C(CCCCCNC(=O)Cc1ccc(-c2ccccc2)cc1)NO |
| 197 to 198 °C | Cc1cccc(C)c1-c1cc2cnc(N)nc2n(C)c1=N |
| 165 °C | O=C(O)CSc1c(Cl)cc2c(-c3ccccc3F)noc2c1Cl |

| melting point | Compound |
| --- | --- |
| 185 to 189 °C | COc1ccc(OC)c(S(=O)(=O)n2c(CCC(=O)O)cc3cc(Cl)ccc32)c1 |
| 112 to 114 °C | O[C@H]1c2cc(Oc3ccc4ccccc4n3)ccc2OC[C@H]1Oc1cccnc1 (relative stereo) |
| 200 to 201 °C | CS(=O)(=O)c1cnc2c(c1)cc(-c1ncco1)n2Cc1ccc(F)cc1 |
| 196 to 197 °C | CCOC(=O)C1=C(C)NC(C)=C(C(=O)OC)C1c1cccc2ccccc12 (stereo unspecified) |
| 128 °C | CCCc1c(-c2ccc(C(=O)OC)cc2)oc2cc(S(=O)(=O)Cl)ccc2c1=O |
| 223 to 225 °C | Cn1c(COc2ccc(CC3SC(=O)NC3=O)cc2)nc2cccnc21 (stereo unspecified) |
| 172 to 174 °C | COc1ccc(C(=O)Nc2ccccc2C(=O)NCCCC(=O)O)cc1 |
| 58 to 59 °C | COC(=O)C(C)Oc1ccc(Oc2ncc(Cl)cc2F)cc1 (stereo unspecified) |
| 154 °C | COC(=O)COc1cc(C(=O)OC)nc2cc(Cl)ccc12 |
| 45 to 53 °C | COc1ccc(S(=O)(=O)N(Cc2cccnc2)C(C(N)=O)C(C)C)cc1 (stereo unspecified) |
| 170 to 171 °C | Cc1nn(Cc2ccc(OCc3nc(-c4ccccc4)oc3C)cc2)c(C)c1CCC(=O)O |
| 302 to 303 °C | Cc1c(NC(=O)c2ccc(C(C)(C)C)cc2)nc2ccc(-n3ccnc3)nn12 |
| 208 °C | CC(C)(C)Sc1c(CC(C)(C)C(=O)O)n(Cc2ccc(Cl)cc2)c2ccc(OCc3ccc4ccccc4n3)cc12 |
| 69.5 to 70.5 °C | COC(=O)c1ccc(Br)cc1COc1ccccc1 |
| 147 to 148 °C | Cc1oc(-c2ccccc2)nc1COc1ccc(COc2ncccc2CC(=O)O)cn1 |
| 88 to 91 °C | CCCCCCOc1ccc2cc(C(C)C(=O)O)ccc2c1 (stereo unspecified) |
| 184 to 192 °C | CCc1cc2c(c3ccc(O)cc13)OCc1cc(O)ccc1-2 |
| 85 to 90 °C | COC(=O)C1=C(C)NC(C)=C(C(=O)OC)C1c1cccc(N(C)C(=NC#N)NCCCN2CCC(c3ccccc3)CC2)c1 |
| 169 to 170 °C | CCn1nnc(NC(=O)C(c2ccccc2)c2ccccc2)n1 |
| 270 to 275 °C | Cc1[nH]c(/C=C2\C(=O)Nc3cc(NC(=O)NC(=O)c4ccccc4)ccc32)c(C)c1C(=O)O |
| 239 to 241 °C | O=C(O)/C=C(\c1ccccc1)c1ccncc1 |
| 157 °C | Cc1cn2c(=O)c(CCN3CCC(C(=O)c4ccc(F)cc4)CC3)cnc2n1Cc1ccccc1 |
| 73 to 75 °C | CCCc1c(OCCCSc2ccc(C(=O)CCCO)cc2)ccc(C(C)=O)c1O |
| 139 to 142 °C | O=C(N(CCN(C(=O)C(F)(F)F)c1cccc2[nH]cc(Cl)c12)Cc1ccccc1)C(F)(F)F |
| 198 °C | Cn1c(=O)n(Cc2ccc3c(c2)OCO3)c(=O)c2cc(C(=O)NCc3ccc4c(c3)OCO4)ccc21 |
| 110 to 112 °C | CC(Oc1cccc(Oc2ccc(C(F)(F)F)cc2)c1)C(=O)OCCS(=O)Cc1ccccc1 (stereo unspecified) |
